Source: US9340500B2, “Aromatic heterocyclic derivative having TRPV4-inhibiting activity” (SHIONOGI & CO., LTD., priority 2011, dated 2016)
pIC50, pKi: −log10 of the molar value. Values after ≈ are worked out from the molar mass of the structure shown.

What was measured:
human TRPV4 [1] = target: T1, human TRPV4 (Homo sapiens (Human), UniProt Q9HBA0); experiment: Test Example 3: measurement of TRPV4 inhibitory activity (Fluo-3, FDSS 3000, 4α-PDD); assay type: cell-based; settings: hTRPV4/CHO cells, calculated from IC50 and 4α-PDD EC50
T1 sequence (Q9HBA0 whole entry): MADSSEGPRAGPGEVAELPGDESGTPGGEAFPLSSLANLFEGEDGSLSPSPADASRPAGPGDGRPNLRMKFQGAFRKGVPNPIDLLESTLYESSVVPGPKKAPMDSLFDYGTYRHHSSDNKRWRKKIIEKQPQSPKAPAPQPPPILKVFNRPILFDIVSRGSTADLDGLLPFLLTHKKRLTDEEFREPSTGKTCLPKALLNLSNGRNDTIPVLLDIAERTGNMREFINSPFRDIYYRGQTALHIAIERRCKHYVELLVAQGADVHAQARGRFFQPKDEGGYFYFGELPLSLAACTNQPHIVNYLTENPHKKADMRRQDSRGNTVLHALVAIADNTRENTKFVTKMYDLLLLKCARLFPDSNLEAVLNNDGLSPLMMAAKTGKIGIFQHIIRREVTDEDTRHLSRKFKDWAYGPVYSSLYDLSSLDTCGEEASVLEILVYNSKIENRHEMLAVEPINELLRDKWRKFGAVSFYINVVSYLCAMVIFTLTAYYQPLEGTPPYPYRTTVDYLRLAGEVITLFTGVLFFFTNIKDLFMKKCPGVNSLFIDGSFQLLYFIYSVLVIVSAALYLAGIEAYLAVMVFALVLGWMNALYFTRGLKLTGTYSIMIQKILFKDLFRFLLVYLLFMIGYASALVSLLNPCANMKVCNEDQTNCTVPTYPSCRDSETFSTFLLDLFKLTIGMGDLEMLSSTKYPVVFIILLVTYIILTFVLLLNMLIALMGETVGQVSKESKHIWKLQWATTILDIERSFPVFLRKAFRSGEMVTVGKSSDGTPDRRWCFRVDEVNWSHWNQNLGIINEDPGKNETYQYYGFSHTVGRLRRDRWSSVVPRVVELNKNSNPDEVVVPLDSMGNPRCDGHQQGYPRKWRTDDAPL
Procedure: (§1) For each compound, TRPV4 inhibitory activity was measured using cells.
(§2) (1) The TRPV4 inhibitory activity was measured using CHO-K1 cells stably expressing human TRPV4 (hTRPV4/CHO cells).
(2) Frozen cells were thawed and subcultured with the medium (MEM-α, 10% FBS, […], 50 unit/mL penicillin, 50 μg/mL streptomycin, 1 mg/mL G418).
(3) The 96-well plates which hTRPV4/CHO cells were seeded at densities of 2×10^4 cells/well in the culture medium and cultured in a CO2 incubator in the presence of 5% CO2 at 37° C. for 24 h was used as assay plates.
(4) The assay plate was washed with assay buffer (Hanks, […], […], pH7.4).
(5) Fluo-3, fluorescent dye for Ca influx assay was added to each well, then the assay plate was incubated in a CO2 incubator in the presence of 5% CO2 at 37° C. for one hour (final conc.; 5 μmmol/L Fluo-3).
(6) The assay plate was washed with the assay buffer, and the buffer was remained at 30 μL/well. Then the assay plate was incubated for 10 min at 37° C.
(7) Diluted compound solution was dispensed to each well in the compound plate, and mixed with built-in Pipette and Mixer of the fluorescence analysis system FDSS 3000 (Hamamatsu Photonics).
(8) 50 μL of 4α-PDD solution (concluding 0.1% Pluronic F-127) was applied to each well of assay plate and mixed.
(9) The fluorescent intensity was measured by FDSS 3000 for 8 min from the point of time addition the compound solution, at Ex 480 nm, Em 540 nm wavelength.
TRPV4 inhibitory activity (Ki value) of a compound was evaluated according to the following procedure.
(10) In the presence of the compound, the difference between maximal and minimal of fluorescent intensity value for 8 min from just before addition of 4α-PDD solution was calculated, and it was referred as Max-Min value. Max-Min value of the Ruthenium Red at 10 μM was defined as 100% inhibitory activity, Max-Min value in the absence of the compound was defined as 0% inhibitory activity. The TRPV4 inhibitory activity of the compound was calculated by the following formula. (1−(Max-Min value of the compound−100% inhibitory activity)/(0% inhibitory activity−100% inhibitory activity))×100 (11) By the following formula, inhibitory activity was calculated at 10 points with three fold serial dilution, in the final concentration of the compound from 10 μmmol/L to 0.5 nmol/L. The IC50 value was calculated by dose-response curve. 100−[(fluorescent intensity in the presence of the compound−fluorescent intensity of back ground)/(total fluorescent intensity−fluorescent intensity of back ground)]×100 (12) In the presence of the compound, activity of 4α-PDD was measured at 9 points with three fold serial dilution from 20 μmol/L. Activity of 4α-PDD was calculated by the following formula. (Max-Min value of the each 4α-PDD concentration−0% activity)/(100% activity−0% activity))×100 (13) Effective activity was calculated in 4α-PDD the above. The EC50 value was calculated by dose-response curve. (14) The Ki value of a compound was calculated by the following formula. Ki (nmol/L)=IC50 value (nmol/L)/([A]/EC50 value (nmol/L)) [A]; Concentration of agonist (nmol/L)

Solubility test = assay type: physicochemical; settings: fassgf or other biorelevant, kinetic from dmso stock, artificial intestinal juice pH 6.8, 16 hours at 25° C.
Procedure: The solubility of each compound is determined under 1% DMSO addition conditions. A 10 mmol/L solution of the compound is prepared with DMSO, and 6 μL of the compound solution is added to 594 μL of an artificial intestinal juice (water and 118 mL of 0.2 mol/L NaOH reagent are added to 250 mL of 0.2 mol/L potassium dihydrogen phosphate reagent to reach 1000 mL) with a pH of 6.8. The mixture is left standing for 16 hours at 25° C., and the mixture is vacuum-filtered. The filtrate is two-fold diluted with methanol/water=1/1, and the compound concentration in the filtrate is measured with HPLC or LC/MS/MS by the absolute calibration method.

human TRPV4 [2] = target: T1, human TRPV4; experiment: Test Example 1: measurement of TRPV4 inhibitory activity (Fluo 4-AM, FLIPR TETRA, 4α-PDD 1 μmol/L); assay type: cell-based; settings: hTRPV4/CHO cells; for pIC50: 4α-PDD 1 μmol/L; for pKi: calculated from IC50 and 4α-PDD EC50
Procedure: as §1, §2
(2) In the day before the experimental day, frozen cell were thawed and washed with the culture medium (MEM-α, 10% FBS, 2 mmol/L GlutaMax, 50 unit Penicillin, 50 μg/mL Streptomycin). Then cells were suspended in the culture medium.
(3) The 384-well plates which hTRPV4/CHO cells were seeded at densities of 4000 cells/well in the culture medium and cultured in a CO2 incubator in the presence of 5% CO2 at 37° C. for overnight was used as assay plates.
(4) The assay plate was washed with assay buffer (Hanks, 20 mmol/L HEPES, 2.5 mmol/L probenecid, pH7.4), and the buffer were remained at 20 μL/well.
(5) 10 μl of dye loading buffer (9 μmol/L Fluo 4-AM, 0.09% Pluronic F-127/assay buffer) was added to each well, then the assay plate was incubated in a CO2 incubator in the presence of 5% CO2 at 37° C. for one hour. (final 3 μmol/L Fluo4-AM).
(6) The assay plate was washed with the assay buffer, and the buffers were remained at 20 μL/well. Then the assay plate was incubated for 10 min at room temperature.
(7) Diluted compound solution was dispensed to each well in the compound plate, and mixed with built-in Pipette and Mixer of the Fluorescence analysis system FLIPR TETRA (Molecular devices).
(8) After incubation for 5 min, 20 μL of 4α-PDD solution were applied to each well of assay plate and mixed with the FLIPR TETRA. (final 1 μmol/L 4α-PDD)
(9) The fluorescent intensity was measured with FLIPR TETRA system for 10 min from the point of time addition the compound solution, at Ex 470-495 nm, Em 515-575 nm wavelength.
TRPV4 inhibitory activity (IC50 value and Ki value) of a compound was evaluated according to the following procedure.
(10) In the presence of the compound, the difference between maximal and minimal of fluorescent intensity value for 5 min from just before addition of 4α-PDD solution was calculated, and it was referred as Max-Min value. Max-Min value of the Ruthenium Red at 20 μM was defined as 100% inhibitory activity, Max-Min value in the absence of the compound was defined as 0% inhibitory activity. The TRPV4 inhibitory activity of the compound was calculated by the following formula. (1−(Max-Min value of the compound−100% inhibitory activity)/(0% inhibitory activity−100% inhibitory activity))×100 (11) Inhibitory activity was calculated at 10 points with three fold serial dilution, in the final concentration of the compound from 10 μmmol/L to 0.5 nmol/L, the IC50 value was calculated by logistic approximation method. (12) In the absence of the compound, the fluorescent intensity was measured as the same method with 10, 1, 0.5, 0.2, and 0 μmol/L as final concentration of 4α-PDD. The difference of minimal and maximal fluorescent intensity value for 5 min from just before addition of 4α-PDD solution was calculated, and it was referred as Max-Min value. Max-Min value of the 4α-PDD at 10 μmol/L was defined as 100% activity, Max-Min value in the absence of 4α-PDD was defined as 0% activity. The TRPV4 activity of each concentration of 4α-PDD was calculated by the following formula. (Max-Min value of the each 4α-PDD concentration−0% activity)/(100% activity−0% activity))×100 (13) Effective activity was calculated in 5 concentrations of 4α-PDD the above. The EC50 value was calculated by logistic approximation method. The Ki value of a compound was calculated by the following formula. Ki (nmol/L)=IC50 value (nmol/L)/(1+[…] (test 4α-PDD concentration (nmol/L)/EC50 value (nmol/L))

[3] = artificial intestinal juice (phosphate buffer) with 1% DMSO

pKi (human TRPV4 [1]) | solubility at 16 h (Solubility test; [3]) [µM] | pIC50 (human TRPV4 [2]) | pKi (human TRPV4 [2]) | Compound | solubility at 16 h (Solubility test; artificial intestinal juice (phosphate buffer), 1% DMSO) [µM]
5.98 | – | 5.64 | – | Cc1c(C(=O)Nc2cccc(C(F)(F)F)c2)cc(-c2ccccc2)n1CCCO [Compound I-006] | –
5.84 | – | 5.59 | – | CC(=O)N1CCN(CCCn2c(-c3ccccc3)cc(C(=O)Nc3cccc(C(F)(F)F)c3)c2C)CC1 [Compound I-015] | –
5.95 | – | 5.49 | – | CC(=O)NCCCn1c(-c2ccccc2)cc(C(=O)Nc2cccc(C(F)(F)F)c2)c1C [Compound I-025] | –
6.03 | – | 5.74 | – | COC(=O)NCCCn1c(-c2ccccc2)cc(C(=O)Nc2cccc(C(F)(F)F)c2)c1C [Compound I-027] | –
5.79 | – | 6.19 | – | Cc1c(C(=O)Nc2cccc(C(F)(F)F)c2)cc(-c2ccccc2)n1CCCN(C)CC(C)C [Compound I-032] | –
6.18 | 26.8 (≈ 12.6 µg/mL) | – | – | Cc1c(C(=O)Nc2cccc(C(F)(F)F)c2)cc(-c2ccccc2)n1CCCN(C)CC1CC1 [Compound I-033] | –
6.45 | > 50 | – | – | Cc1c(C(=O)Nc2cccc(C(F)(F)F)c2)cc(-c2ccccc2)n1CCCN(C)CC(C)(C)CN(C)C [Compound I-038] | –
6.38 | – | 6.62 | – | Cc1c(C(=O)Nc2cccc(C(F)(F)F)c2)cc(-c2ccccc2)n1CCCN(C)C(=O)C1CCCC1 [Compound I-049] | –
6.60 | – | 6.29 | – | Cc1c(C(=O)Nc2cccc(C(F)(F)F)c2)cc(-c2ccccc2)n1CCCN(C)C(=O)c1ccno1 [Compound I-063] | –
5.77 | – | 6.23 | – | CC(=O)N(C)CCCn1c(-c2ccccc2)cc(C(=O)Nc2cccc(C(F)(F)F)c2)c1C [Compound I-070] | –
5.79 | – | 5.41 | – | Cc1c(NC(=O)Nc2cccc(C(F)(F)F)c2)cc(-c2ccccc2)n1CCCN1CCOCC1 [Compound I-081] | –

More lines, now with the values behind:

Compound | pKi (human TRPV4 [1]) | solubility at 16 h (Solubility test; [3]) [µM] | pIC50 (human TRPV4 [2]) | pKi (human TRPV4 [2]) | solubility at 16 h (Solubility test; artificial intestinal juice (phosphate buffer), 1% DMSO) [µM]
Cc1c(C(=O)Nc2ccc(Cl)cn2)cc(-c2ccccc2)n1CCCN1CCOCC1 [Compound I-004] | 5.80 | 39.2 (≈ 17.2 µg/mL) | – | – | –
CCOC(=O)Cc1csc(NC(=O)c2cc(-c3ccccc3)n(CCCN3CCOCC3)c2C)n1 [Compound I-005] | 5.77 | > 50 | – | – | –
Cc1c(C(=O)Nc2cccc(C(F)(F)F)c2)cc(-c2ccccc2)n1CCCN1CCCCC1 [Compound I-008] | 6.49 | – | 7.09 | – | –
COCCCn1c(-c2ccccc2)cc(C(=O)Nc2cccc(C(F)(F)F)c2)c1C [Compound I-010] | 6.15 | – | 6.10 | – | –
Cc1cc(C(=O)Nc2cccc(C(F)(F)F)c2)c(C)n1CCCN1CCOCC1 [Compound I-017] | 5.81 | > 50 | – | – | –
Cc1c(C(=O)Nc2ccc(C(F)(F)F)cc2)cc(-c2ccccc2)n1CCCN1CCOCC1 [Compound I-024] | 6.12 | – | 6.47 | – | –
O=C(Nc1cccc(C(F)(F)F)c1)c1cc(-c2ccccc2)n(CCCN2CCOCC2)c1C(F)(F)F [Compound I-028] | 5.77 | – | 5.42 | – | –
Cc1c(C(=O)Nc2cccc(C(F)(F)F)c2)cc(-c2ccccn2)n1CCCN1CCOCC1 [Compound I-073] | – | 28.9 (≈ 13.7 µg/mL) | 6.47 | 6.80 | –
Cc1c(C(=O)Nc2cccc(C(F)(F)F)c2)cc(-c2ccncc2)n1CCCN1CCOCC1 [Compound I-074] | – | > 50 | 5.77 | 6.11 | –
CC(=O)N1CCC(c2cc(C(=O)Nc3cccc(C(F)(F)F)c3)c(C)n2CCCN2CCOCC2)CC1 [Compound I-077] | – | > 50 | 5.33 | 5.70 | –
Cc1c(C(=O)Nc2cccc(C(F)(F)F)c2)cc(C2CCN(S(C)(=O)=O)CC2)n1CCCN1CCOCC1 [Compound I-078] | – | 20.1 (≈ 11.2 µg/mL) | 5.31 | 5.68 | –
Cc1c(C(=O)Nc2cccc(C(F)(F)F)c2)cc(C#N)n1CCCN1CCOCC1 [Compound I-079] | – | 40.2 (≈ 16.9 µg/mL) | 5.11 | 5.49 | –
Cc1c(C(=O)Nc2cccc(C(F)(F)F)c2)cc(-c2ccccc2)n1CCN1CCOCC1 [Compound I-083] | 6.35 | – | 6.40 | – | –
O=C(Nc1cccc(C(F)(F)F)c1)c1cc(-c2ccccc2)nn1CCCN1CCOCC1 [Compound I-085] | – | 14.5 (≈ 6.65 µg/mL) | 5.89 | 6.23 | –
O=C(Nc1cccc(C(F)(F)F)c1)c1cc(-c2ccccc2)n(CCCN2CCOCC2)n1 [Compound I-086] | – | 8.3 (≈ 3.81 µg/mL) | 5.47 | 5.80 | –
Cc1c(C(=O)Nc2cccc(C(F)(F)F)c2)nc(-c2ccccc2)n1CCCN1CCOCC1 [Compound I-087] | – | – | – | – | 5.2 (≈ 2.46 µg/mL)
O=C(Nc1cccc(C(F)(F)F)c1)c1cnc(-c2ccccc2)c(CCCN2CCOCC2)c1 [Compound I-088] | – | 35.1 (≈ 16.5 µg/mL) | 5.24 | 5.55 | –
